From ChEMBL document CHEMBL1127298, “Bis-catechol-substituted redox-reactive analogues of hexamethonium and decamethonium: stimulated affinity-dependent reactivity through iron peroxide catalysis” (J Med Chem, 1994) come the findings set out here.

What is called pKi is −log10 of the Ki, conventionally taken in molar units. Read a low pKi as a large Ki. As usually defined, the pKd is the Kd on a negative log10 scale, so that one unit is a factor of ten.

pKd, pKi: −log10 of the molar value.

In test [1] the target is T1, Acetylcholine receptor (Torpedo californica, UniProt P02710+P02712+P02714+P02718). Kind of test: Binding affinity against nicotinic acetylcholine receptor (nAChR). The format is protein-complex assay, Tetronarce californica.
Test [2] has as its target T1, Acetylcholine receptor. Kind of test: Compound was evaluated for the binding constant for association with nicotinic acetylcholine receptor (nAChR). The format is protein-complex assay, Tetronarce californica.

T1 sequence (P02710 whole entry): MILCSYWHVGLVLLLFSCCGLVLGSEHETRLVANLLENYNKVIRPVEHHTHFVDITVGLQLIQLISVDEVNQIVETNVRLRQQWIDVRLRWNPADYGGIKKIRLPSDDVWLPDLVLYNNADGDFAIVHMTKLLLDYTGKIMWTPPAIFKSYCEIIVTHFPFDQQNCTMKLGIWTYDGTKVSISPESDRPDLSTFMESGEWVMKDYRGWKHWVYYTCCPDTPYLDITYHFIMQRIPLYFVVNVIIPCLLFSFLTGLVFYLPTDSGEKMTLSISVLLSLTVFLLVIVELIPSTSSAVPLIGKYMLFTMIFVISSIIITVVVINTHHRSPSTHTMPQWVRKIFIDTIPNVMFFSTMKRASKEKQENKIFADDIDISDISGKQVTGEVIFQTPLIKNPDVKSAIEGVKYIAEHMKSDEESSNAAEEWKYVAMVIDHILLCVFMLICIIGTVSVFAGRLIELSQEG
T1 sequence (P02712 whole entry): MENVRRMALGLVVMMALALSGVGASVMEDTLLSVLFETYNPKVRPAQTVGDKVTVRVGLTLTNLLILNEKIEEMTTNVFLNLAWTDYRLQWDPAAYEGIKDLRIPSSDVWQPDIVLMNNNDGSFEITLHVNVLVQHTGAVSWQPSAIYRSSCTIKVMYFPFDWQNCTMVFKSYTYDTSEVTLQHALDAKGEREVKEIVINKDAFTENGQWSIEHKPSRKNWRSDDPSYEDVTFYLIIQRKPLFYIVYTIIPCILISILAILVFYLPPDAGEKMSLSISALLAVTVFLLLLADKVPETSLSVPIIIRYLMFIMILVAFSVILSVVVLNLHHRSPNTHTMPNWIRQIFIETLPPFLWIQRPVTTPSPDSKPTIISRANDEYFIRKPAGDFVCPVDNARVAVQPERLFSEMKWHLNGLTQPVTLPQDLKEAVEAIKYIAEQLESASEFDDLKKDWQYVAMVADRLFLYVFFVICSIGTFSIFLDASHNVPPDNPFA
T1 sequence (P02718 whole entry): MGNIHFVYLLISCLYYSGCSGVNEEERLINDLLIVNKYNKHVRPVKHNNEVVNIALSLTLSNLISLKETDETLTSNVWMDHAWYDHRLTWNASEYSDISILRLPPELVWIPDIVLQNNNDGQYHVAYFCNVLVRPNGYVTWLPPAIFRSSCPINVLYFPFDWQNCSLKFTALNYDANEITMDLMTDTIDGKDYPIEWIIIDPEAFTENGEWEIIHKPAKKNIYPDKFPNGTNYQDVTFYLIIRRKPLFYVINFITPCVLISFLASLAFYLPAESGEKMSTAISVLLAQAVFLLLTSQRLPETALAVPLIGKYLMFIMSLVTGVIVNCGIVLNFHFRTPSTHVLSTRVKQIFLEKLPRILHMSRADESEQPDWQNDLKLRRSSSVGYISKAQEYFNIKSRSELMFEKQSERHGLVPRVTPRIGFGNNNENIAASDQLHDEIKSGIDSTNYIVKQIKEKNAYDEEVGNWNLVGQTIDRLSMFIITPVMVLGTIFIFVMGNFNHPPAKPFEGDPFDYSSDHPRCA
T1 sequence (P02714 whole entry): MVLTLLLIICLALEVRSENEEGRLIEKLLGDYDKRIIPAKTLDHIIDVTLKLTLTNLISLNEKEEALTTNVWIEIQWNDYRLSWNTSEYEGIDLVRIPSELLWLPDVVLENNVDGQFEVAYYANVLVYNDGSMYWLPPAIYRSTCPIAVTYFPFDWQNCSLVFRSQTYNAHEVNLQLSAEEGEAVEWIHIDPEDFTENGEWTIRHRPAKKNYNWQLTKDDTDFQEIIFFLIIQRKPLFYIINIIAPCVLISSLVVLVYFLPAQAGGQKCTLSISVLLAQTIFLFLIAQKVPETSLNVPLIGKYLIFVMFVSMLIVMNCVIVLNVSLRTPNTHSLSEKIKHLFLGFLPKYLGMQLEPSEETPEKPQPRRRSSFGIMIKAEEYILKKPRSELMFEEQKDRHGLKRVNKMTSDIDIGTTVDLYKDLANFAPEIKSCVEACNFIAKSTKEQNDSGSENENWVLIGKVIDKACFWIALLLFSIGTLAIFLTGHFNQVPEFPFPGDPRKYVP

Compound `C[N+](C)(CCCCCC[N+](C)(C)Cc1cccc(O)c1O)Cc1cccc(O)c1O` gave a pKi at Acetylcholine receptor [1] of 7.74. Also, the pKd at Acetylcholine receptor [2] is 7.74.

As to `C[N+](C)(CCCCCCCCCC[N+](C)(C)Cc1cccc(O)c1O)Cc1cccc(O)c1O`, the pKd on Acetylcholine receptor [2] was 6.64. In the case of `C[N+](C)(C)Cc1cccc(O)c1O`, the pKi on Acetylcholine receptor [1] was 4.55.

At Acetylcholine receptor [2], `C[N+](C)(C)CCCCCC[N+](C)(C)C` [HEXAMETHONIUM BROMIDE] showed a pKd of 7.74.
